Results from patent publication EP0411494A2, “Ergoline derivatives having dopaminergic activity” (priority 1989, dated 1991).

Assays:
mouse = assay: Locomotor activity in the mouse; assay type: in vivo
[1] = system: Spontaneously hypertensive rats (SHR); assay: Antihypertensive activity on spontaneously hypertensive rats (SHR); assay type: in vivo, rat; conditions: for Mean arterial pressure % reduction: SHR
Source text: All the compounds of formula (I) have antihypertensive activity on Spontaneously hypertensive rats (SHR), as clearly shown by the results reported in the following Table III.

rat seminal vesicle = assay: Adrenolytic activity in the rat seminal vesicle test in vitro
Source text: Most of the compounds of formula (I) have a marked adrenolytic activity in the rat seminal vesicle test in vitro.

[2] = system: isolated uterus of female rat; assay: Antiserotonin activity in vitro on isolated uterus of female rat; conditions: for ED₅₀: antiserotonin activity, isolated uterus of female rat
Source text: All the compounds of the invention have a marked antiserotonin activity in vitro test on isolated uterus of female rat.

reserpinized rat = assay: Antihyperprolactinemic activity in the reserpinized rat; assay type: in vivo; conditions: for Plasmatic prolactin % reduction: reserpinized rat
guinea pig platelet = assay: In vitro guinea pig platelet aggregation induced by ADP; assay type: cell-based; conditions: guinea pig platelets
rat = assay: Stereotypy test in the rat; assay type: in vivo; conditions: dose 10 mg/kg i.p.
[3] = After 1 hour, dose 0.25 mg/kg os
[4] = After 2 hours, dose 0.50 mg/kg os

| Compound | % inhibition (mouse; dose 20 mg/kg i.p.) [%] | Mean arterial pressure % reduction ([1]; dose = 1 mg/kg i.p.) [%] | Mean arterial pressure % reduction ([1]; dose = 3 mg/kg i.p.) [%] | hypotensive / antihypertensive activity ([1]; result in words) | ED₅₀ (rat seminal vesicle) [µg/mL] | ED₅₀ [2] [µg/mL] | antiserotonin activity ([2]; result in words) | Plasmatic prolactin % reduction (reserpinized rat; [3]) [%] | Plasmatic prolactin % reduction (reserpinized rat; [4]) [%] | antihyperprolactinemic activity (reserpinized rat; result in words) | Platelet aggregation % reduction (guinea pig platelet; Dose 40 mcg/ml) [%] | Mean score (rat) | % inhibition (mouse; dose 10 mg/kg i.p.) [%] | Platelet aggregation % reduction (guinea pig platelet; Dose 80 mcg/ml) [%] |
| --- | --- | --- | --- | --- | --- | --- | --- | --- | --- | --- | --- | --- | --- | --- |
| CN(C[C@@H]1C=C2c3cccc4[nH]cc(c34)C[C@H]2N(C)C1)C1CC1 [P 1427, N-methyl-N-cyclopropyl-9,10-didehydro-6-methylergoline-8β-methanamine] | 92.7 | 35.6 | 32.4 | high | 0.70 | 0.004 | high | 67.2 | 86.6 | interesting | 25 |  |  |  |
| α-Bromocryptine [reference compound] |  |  |  |  |  | 0.470 |  | 78.2 | 80.9 |  |  | 2.25 | 78.7 | 25 |
